{
  "source": "patent US5155126A",
  "about": "“Treatment of central nervous system disorders with pyrazole, pyrrole and triazole angiotensin-II receptor antagonists” (E. I. du Pont de Nemours and Company, priority 1991, dated 1992)",
  "molecules": {"B1": {"name": "renin: Renin (Sigma Chemicals), a stimulator of endogenous AII biosynthesis (protein, UniProt P00797 67-406, looked up)", "Renin": "LTLGNTTSSVILTNYMDTQYYGEIGIGTPPQTFKVVFDTGSSNVWVPSSKCSRLYTACVYHKLFDASDSSSYKHNGTELTLRYSTGTVSGFLSQDIITVGGITVTQMFGEVTEMPALPFMLAEFDGVVGMGFIEQAIGRVTPIFDNIISQGVLKEDVFSFYYNRDSENSQSLGGQIVLGGSDPQHYEGNFHYINLIKTGVWQIQMKGVSVGSSTLLCEDGCLALVDTGASYISGSTSSIEKLMEALGAKKRLFDYVVKCNEGPTLPDISFHLGGKEYTLTSADYVFQESYSSKKLCTLAIHAMDIPPPTGPTWALGATFIRKFYTEFDRRNNRIGFALAR"}},
  "key": {"[1]": {"test_system": "potassium-stimulated release of ACh in entorhinal cortex", "settings": "in vitro, entorhinal cortex from rat brain; in words; cited from earlier work"}, "[2]": {"test_system": "retention of a passive avoidance response", "settings": "injected into dorsal neostriatum; in words; cited from earlier work"}, "[3]": {"test_system": "memory of previously learned tasks; anticholinergic effect on performance", "settings": "in words; cited from earlier work"}, "[4]": {"test_system": "AII-2 receptor (AII receptor subtype-2)", "settings": "in words; cited from earlier work"}, "uphill avoidance": {"test_system": "uphill avoidance", "settings": "acute 30 mg/kg PO; in words; cited from earlier work"}, "[5]": {"test_system": "scopolamine-induced PA amnesia", "settings": "three times per day at 1, 3 and 10 mg/kg PO; in words; cited from earlier work"}, "[6]": {"test_system": "ACh in the striatum and hypothalamus", "settings": "acute or repeated administration; in words; cited from earlier work"}, "[7]": {"test_system": "scopolamine-induced impairment of eight arm radial maze performance", "settings": "3 mg/kg IP; in words; cited from earlier work"}, "[8]": {"test_system": "renin-induced disruption of passive avoidance retention", "experiment": "Renin-disrupted passive avoidance retention", "type": "in vivo, male Sprague-Dawley rats", "settings": "for effect on memory / renin-induced amnesia: IVT, in words", "procedure": "Experimentally naive male Sprague-Dawley rats […] (Charles River Breeding Laboratories, Kingston, N.Y.), weighing between 175 to 200 gm were used. The animals were housed four per cage (45.0 L × 20.0 H × 26.0 W cm) with free access to food and water. They were maintained on a 12 h light/dark cycle (lights on 0600 h) and at a room temperature of 22±1° C. with relative humidity of 50±10%.\nThe experimental sessions were conducted in a two-compartment passive avoidance box. One compartment, made of clear plastic with a perforated clear plastic floor, measured 21(L)=24.5(H)=17(W) cm and was illuminated with a 60 watt incandescent light bulb placed 36 cm above the floor. The other compartment, made of black plastic, measured 30.5 (L)×20.3 (H)×21.5 (W) cm with a floor made of 4 mm stainless steel rods spaced 1.2 cm apart. A grid floor shocker (Coulbourn Instruments) was connected to the steel rods and provided scrambled footshock. The two compartments were separated by a solenoid-operated slide door (Lafayette Instrument Co., Lafayette, Ind.). An electronic counter (Coulbourn Instruments), triggered by the opening or closing of the slide door, recorded acquisition and retention latencies (latencies were defined as the time it took an animal to enter the dark compartment).\nPassive avoidance training began by placing the rat into the clear compartment of the two-compartment passive avoidance box. Following a 10 sec delay, the slide door to the dark compartment was raised. Once the rat moved completely into the dark compartment (all four paws on the shock grid floor) the slide door was lowered, and after a 10 sec delay, a 1.0 mA shock was applied to the grid floor for three sec. A second three s shock was delivered after an additional 10 sec delay. The rats were immediately removed from the dark compartment and returned to their home cage. A retention test was given 24 h later. It proceeded in the same manner as the training session except that no shock was applied to the grid floor when the rats were provided access to the dark compartment for a maximum of 300 sec.\nAll drugs were administered IVT 60 minutes prior to acquisition training in a volume of 5 μL. Doses are expressed as the free base weight of each compound."}, "[9]": {"test_system": "AII binding sites in the brain", "experiment": "Binding of AII antagonists to sections of brain slices", "settings": "in words"}, "AII-1 receptor": {"test_system": "AII-1 receptor", "experiment": "AII-1 receptor antagonism (statement)", "settings": "in words"}, "[10]": {"test_system": "light/dark habituation performance", "settings": "subchronic treatment; in words; cited from earlier work"}, "avoidance learning": {"test_system": "avoidance learning", "settings": "renin into lateral ventricle; captopril IVT prior to renin; in words; cited from earlier work"}, "[11]": {"test_system": "scopolamine-induced disruption of performance", "settings": "daily treatment; in words; cited from earlier work"}, "[12]": {"test_system": "AII in cerebrospinal fluid", "settings": "after renin IVT; increased from 40; cited from earlier work"}},
  "note": "“And” between values parts separate entries of the source, which are not always exact repeats. Equal values may be shown once. “Also recorded” adds a separate entry of the source.",
  "data": [
    {"molecule": "AII: Angiotensin-II, a circulating hormone thought to act as a neuropeptide in the CNS (DRVYIHPF; Angiotensin-2; UniProt P01019 25-32, looked up)", "values": [
      {"measurement": "effect on potassium-stimulated release of ACh", "setting": "[1]", "result": "can inhibit the release of ACh"},
      {"measurement": "effect on retention of a PA response", "setting": "[2]", "result": "disruption in retention of a PA response"}
    ]},
    {"molecule": "NC(=O)[C@@H]1CCCN1C(=O)[C@H](Cc1cnc[nH]1)NC(=O)[C@@H]1CCC(=O)N1", "note": "[thyrotropin releasing hormone]", "values": [
      {"measurement": "effect on retention of a PA response", "setting": "[2]", "result": "no effect"}
    ]},
    {"molecule": "NCCCC[C@H](OP(=O)(O)CCCCc1ccccc1)C(=O)N1CCC[C@H]1C(=O)O", "note": "[SQ 29852]", "values": [
      {"measurement": "effect on anticholinergic effect on performance", "setting": "[3]", "result": "ameliorate, at least in part"},
      {"measurement": "effect on memory of previously learned tasks", "setting": "[3]", "result": "protective effects on memory of previously learned tasks"}
    ]},
    {"molecule": "[1-sarcosine, 8-threonine]angiotensin-II", "values": [
      {"measurement": "effect on potassium-stimulated release of ACh", "setting": "[1]", "result": "antagonized"}
    ]},
    {"molecule": "O[C@H](CS)[C@H](O)CS", "note": "(racemic) [DTT, dithiothreitol]", "values": [
      {"measurement": "inactivation of AII-2 receptor by DTT", "setting": "[4]", "result": "resistant to DTT inactivation"}
    ]},
    {"molecule": "CCOC(=O)C(CCc1ccccc1)NC(C)C(=O)N1CC2(CC3CCC2CC3)CC1C(=O)O", "note": "(stereo not shown) [Hoe 288]", "values": [
      {"measurement": "performance during retention testing, uphill avoidance", "setting": "uphill avoidance", "result": "improved performance during retention testing"},
      {"measurement": "effect on scopolamine-induced PA amnesia", "setting": "[5]", "result": "partially reversed the amnesia"},
      {"measurement": "change of ACh in striatum and hypothalamus", "setting": "[6]", "result": "significant decrease in ACh"},
      {"measurement": "effect of muscarinic receptor blockade on performance", "setting": "[7]", "result": "partially antagonized the effects of muscarinic receptor blockade"}
    ]},
    {"molecule": "Cc1cc(Cn2cnc3c2CC(C(=O)O)N(C(=O)C(c2ccccc2)c2ccccc2)C3)ccc1N", "note": "(stereo not shown) [EXP655, 1-(4-amino-3-methylphenyl)methyl-5-diphenylacetyl-4,5,6,7-tetrahydro-1H-imidazo[4,5-c]pyridine-6-carboxylic acid]", "values": [
      {"measurement": "effect on memory / renin-induced amnesia", "setting": "[8]", "result": "less effective in preventing amnesia"},
      {"measurement": "sensitivity of AII binding sites in brain", "setting": "[9]", "result": "the majority of binding sites in the brain are DTT-insensitive and EXP655-sensitive"}
    ]},
    {"molecule": "lysine-8-vasopressin", "values": [
      {"measurement": "effect on retention of a PA response", "setting": "[2]", "result": "no effect"}
    ]},
    {"molecule": "AI: printed \"AI, but not AI\" in b14 (DRVYIHPFHL; Angiotensin-1; UniProt P01019 25-34, looked up)", "values": [
      {"measurement": "effect on potassium-stimulated release of ACh", "setting": "[1]", "result": "reduced potassium-stimulated release of ACh without effects on basal levels"}
    ]},
    {"molecule": "CCCc1nc(C(F)(F)F)c(C(=O)O)n1Cc1ccc(-c2ccccc2-c2nnn[nH]2)cc1", "note": "[Compound C, 2-n-propyl-1-[(2'-(1H-tetrazol-5-yl)biphenyl-4-yl)methyl]-4-trifluoromethylimidazole-5-carboxylic acid]", "values": [
      {"measurement": "effect on memory / renin-induced amnesia", "setting": "[8]", "result": "protected against amnesia"},
      {"measurement": "AII-1 receptor antagonist activity", "setting": "AII-1 receptor", "result": "AII-1 receptor antagonists"}
    ]},
    {"molecule": "CCCc1nc(C(F)(F)F)c(CO)n1Cc1ccc(-c2ccccc2-c2nnn[nH]2)cc1", "note": "[Compound D, 2-n-propyl-5-hydroxymethyl-1-[(2'-(1H-tetrazol-5-yl)biphenyl-4-yl)methyl]-4-trifluoromethylimidazole]", "values": [
      {"measurement": "effect on memory / renin-induced amnesia", "setting": "[8]", "result": "protected against amnesia"},
      {"measurement": "AII-1 receptor antagonist activity", "setting": "AII-1 receptor", "result": "AII-1 receptor antagonists"}
    ]},
    {"molecule": "C[C@H](CS)C(=O)N1CCC[C@H]1C(=O)O", "note": "[captopril]", "values": [
      {"measurement": "rate of acquisition of light/dark habituation performance", "setting": "[10]", "result": "increased the rate of acquisition"},
      {"measurement": "effect on memory / renin-induced amnesia", "setting": "[8]", "result": "prevented"},
      {"measurement": "effect on avoidance learning", "setting": "avoidance learning", "result": "prevented the renin-induced avoidance disruption"},
      {"measurement": "scopolamine-induced disruption of performance", "setting": "[11]", "result": "prevented"}
    ]},
    {"molecule": "B1", "values": [
      {"measurement": "effect on memory / renin-induced amnesia", "setting": "[8]", "result": "produces memory deficit; also recorded: dose-related amnesia"},
      {"measurement": "Median Retention Latency", "setting": "[8]; renin 1.0 μg/5 μL IVT alone", "result": "48 s and 32 s and 27 s"},
      {"measurement": "Median Retention Latency", "setting": "[8]; renin 5.0 μg/5 μL IVT alone", "result": 17, "unit": "s"},
      {"measurement": "AII in cerebrospinal fluid", "setting": "[12]", "result": "about 5000 fmol per mL"},
      {"measurement": "effect on avoidance learning", "setting": "avoidance learning", "result": "disruption of avoidance learning"}
    ]}
  ]
}
